Assay results: paper PMC8661809 (Protein Science : A Publication of the Protein Society, 2021)

Biological target: CTD of SARS‐CoV‐2 N protein (Severe acute respiratory syndrome coronavirus 2, UniProt P0DTC9)
Assay: biochemical
Type: binding

Structure (SMILES): Nc1ncnc2c1ncn2[C@@H]1O[C@H](COP(=O)(O)OP(=O)(O)OP(=O)(O)O)[C@@H](O)[C@H]1O [ATP]
- Kd: 1490 ± 280 µM
